From US20080017207A1, “Reduction of the Deleterious Effects of Tobacco Smoking by the Induction of Phase 2 Enzymes by Nerf2” (SAVIPU PHARMACEUTICALS, priority 2006, published 2008)

Columns and labels:
[1] = tested on: benzo[a]pyrene-induced transformation of RTE cells; experiment: rat tracheal epithelial (RTE) cell focus inhibition assay; format: cell-based
Procedure: (§1) The rat tracheal epithelial (RTE) cell focus inhibition assay was used to identify potential chemopreventive activity of tanshinone IIA. Tanshinone IIA was evaluated for its ability to inhibit benzo[a]pyrene-induced transformation of RTE cells. Tracheal epithelial cells were isolated from 8-12 week-old male Fisher 344 rats and plated on collagen coated dishes. Initially, a nontoxic concentration of tanshinone IIA was determined by treating RTE cells with a range of 1.5 nM to 3000 nM of tanshinone IIA. […] About 10% cells survived at a concentration of 1500 nM. Freshly isolated RTE cells were exposed to benzo[a]pyrene alone or in combination with tanshinone IIA. Benzo[a]pyrene was washed out after an exposure of 24 h. The maximal non-toxic concentration and four half log concentrations of tanshinone IIA (300 nM to 3 nM) were used for the chemopreventive assay. After 30 days in culture, transformed foci were scored and inhibition was quantitated. […] A positive control of retinoic acid inhibited the transformation frequency by 50% at 1 nM.

[2] = tested on: benzo[a]pyrene-induced gastric neoplasia; conditions: cited from earlier work
RTE cells = experiment: toxicity of tanshinone IIA to RTE cells; format: cell-based, rat
Procedure: as §1

NF-κB = conditions: as disclosed in U.S. Application Ser. No. 60/779,142; cited from earlier work

In the case of `CC1=C(/C=C/C(C)=C/C=C/C(C)=C/C(=O)O)C(C)(C)CCC1` [retinoic acid, reference compound], the inhibition at 0.001 µM ([1]; Rattus norvegicus, at 1 nM, positive control, read-out: inhibition of transformation frequency) is reported as 50%.

In the case of `Cc1c(-c2cnccn2)ssc1=S` [Oltipraz, 4-methyl-5-[2-pyrazinyl]-1,2-dithiole-3-thione], the tumor burden ([2]; nrf2-deficient mice) is given as “no effect” and the “multiplicity of gastric neoplasia” value ([2]; wild-type mice) is given as “significantly reduced”.

For `Cc1coc2c1C(=O)C(=O)c1c-2ccc2c1CCCC2(C)C` [Tanshinone IIA], the cells survived (RTE cells; at 1500 nM) was “About 10%”, the nontoxic concentration (RTE cells; range tested 1.5 nM to 3000 nM) was at most 150 nM and the “toxicity to the cells” value (RTE cells; very low concentrations (3 nM)) was “nontoxic”. For the same compound, the “inhibition of NF-κB” value (NF-κB) was “demonstrated inhibition”, the “prevention of benzo[a]pyrene-induced transformation of rat tracheal epithelial cells” value ([1]; 3 nM) was “totally prevented” and the “inhibition of transformation frequency” value ([1]; each dose level, 300 nM to 3 nM, foci scored after 30 days in culture) was “complete inhibition”.
